# Measurements reported in paper PMC9502539, “1,2,3-Triazole-Benzofused Molecular Conjugates as Potential Antiviral Agents against SARS-CoV-2 Virus Variants” (Life, 2022).
# Like-named read-outs stand apart in the source and are kept apart here.
# Target: Omicron spike protein (Severe acute respiratory syndrome coronavirus 2, UniProt P0DTC2, E484A/G339D/G446S/G496S/K417N/N440K/N501Y/Q493R/Q498R/S371L/S373P/S375F/S477N/T478K/Y505H)
# Format: binding, SARS-CoV-2 Omicron variant (B.1.1.529 BA.1)
SMILES,remaining activity % of omicron spike proteins (0.1 µM) [%],remaining activity % of omicron spike proteins (0.2 µM) [%],remaining activity % of omicron spike proteins (0.5 µM) [%],remaining activity % of omicron spike proteins (0.75 µM) [%],remaining activity % of omicron spike proteins (1 µM) [%]
"CC(C)(O/N=C(\C(=O)N[C@@H]1C(=O)N2C(C(=O)[O-])=C(C[n+]3ccccc3)CS[C@H]12)c1csc(N)n1)C(=O)O [Ceftazidime, ceftazidime, reference compound]",89,68,54,44,34
S=c1[nH]nc(Cn2cc(CSc3nc4ccccc4n3Cc3cn(Cc4n[nH]c(=S)n4-c4ccccc4)nn3)nn2)n1-c1ccccc1 [compound 6],79,45.6,29,16,10
Cc1ccc2nc(NC(=O)Cn3cc(CN4C(=O)C(=O)c5ccccc54)nn3)sc2c1 [compound 12],94,90,82,74,59
O=C(Cn1cc(CSc2nc3ccccc3n2Cc2cn(CC(=O)NNC(=S)Nc3ccccc3)nn2)nn1)NNC(=S)Nc1ccccc1 [compound 4],73.1,40,20,10,8
O=C(Cn1cc(CSc2nc3ccccc3n2Cc2cn(CC(=O)NNC(=S)Nc3ccc(F)cc3)nn2)nn1)NNC(=S)Nc1ccc(F)cc1 [compound 5],82,38.7,30,20,16
Nn1c(Cn2cc(CSc3nc4ccccc4n3Cc3cn(Cc4n[nH]c(=S)n4N)nn3)nn2)n[nH]c1=S [compound 7],85,43,40,35,30
Cc1onc(NS(=O)(=O)c2ccc(-n3cc(CSc4nc5ccccc5n4Cc4cn(-c5ccc(S(=O)(=O)Nc6noc(C)c6C)cc5)nn4)nn3)cc2)c1C [compound 9],65.8,30.4,10.3,5.1,2
